In experiment [1] the test system is cGMP in the cerebrospinal fluid. The experiment is described as follows: Effect on rodent cerebrospinal fluid cGMP (rat). The conditions noted are these: po, read-out: % CSF cGMP increase from vehicle control. It counts as in vivo. The protocol:
3) Effect on Rodent Cerebrospinal Fluid cGMP
The test compound was administered to ICR male mice (Charles River Laboratories Japan, Inc.), Sprague-Dawley male rats (SD) (Charles River Laboratories Japan, Inc.) or Long-Evans male rats (LE) (Institute for Animal Reproduction), and the cerebrospinal fluid was then collected under pentobarbital anesthesia and stored at −20° C. cGMP in the cerebrospinal fluid was measured in accordance with the acetylation EIA procedure of cGMP EIA kit (GE Healthcare) or the non-acetylation procedure of cGMP EIA kit (Cayman) The result was an increase (C) in the amount of cGMP of the test compound-administered group (B) relative to the amount of cGMP of the vehicle-administered group (A), and was calculated using the following formula cGMP increase(C)=[(B)−(A)]/(A)×100(%)

Experiment [2] concerns the target T1, human recombinant PDE9 protein (Homo sapiens, UniProt O76083).
T1 construct: His-tag (inferred from the Ni column purification; a myc His-tag vector is named only for the HEK293 expression check); made in house; host or cells: silkworm (pYNG vector, Katakura Industries)
The experiment is described as follows: PDE9 inhibitory activity test (measurement of PDE9 inhibitory action, [3H]-cGMP). The conditions noted are these: PDE9 IC50, human recombinant PDE9, 30° C., 10 min. It counts as biochemical. From the text:
1) Preparation of a Human Recombinant PDE9 Protein
An hsPDE9A 1cDNA fragment was amplified by being based on a base sequence (Accession No.: AF048837) of the hsPDE9A1 registered on GenBank data base, and by using the following sequences (Hokkaido System Science Co., Ltd.) as a primer and Human hippocampus cDNA library (Clontech Laboratories, Inc.) as a template DNA, and using Pfu50 DNA polymerase (Invitrogen Corp.), and by a polymerase chain reaction (PCR) of the following condition.
The condition of PCR: [96° C., 5 min]×1 cycle, [(96° C., 10 sec), (57° C., 5 sec), (72° C., 2 min)]×30 cycles
The obtained hsPDE9A 1 cDNA fragment was incorporated in a TOPO-TA cloning vector (Invitrogen Corp.), and the base sequence was checked; and thereafter, the resultant was transfected in a pcDNA 3.1/myc His-tag vector (Invitrogen Corp.) to thereby make a human PDE9 expression vector for mammal cells. The human PDE9 expression vector for mammal cells was transfected with transient expression to an HEK293 cell by using a LIPOFETAMINE 2000 Reagent (Gibco). It was confirmed by Western blot method that the PDE9A expressed in the HEK293 cell, and then, the human PDE9A 1cDNA fragment was transfected in a pYNG vector (Katakura Industries Co., Ltd.) to thereby make an expression vector for insect cells. A supernatant of homogenized silk worm in which a large amount of PDE9 was expressed was purified by an equilibrated Ni column using a buffer A (20 mmol/L Tris-HCl, pH: 8.0, 1 mmol/L DTT, 10 mmol/L imidazole). After 1 hour of mixing of the supernatant and the Ni column, cleaning was carried out using a buffer B (20 mmol/L Tris-HCl, pH: 8.0, 1 mmol/L […]), and elution was carried out using a buffer C (20 mmol/L Tris-HCl, pH: 8.0, 1 mmol/L DTT, 100 mmol/L imidazole). An elution fraction was preparatively collected to thereby obtain a PDE9 enzyme solution.
2) Measurement of PDE9 Inhibitory Action
To 100 μL of a buffer D (40 mmol/L Tris-HCl, pH: 7.4, 10 mmol/L MgCl2, 1 mM DTT, 2 μM cGMP) solution containing [^3H]-cGMP ([…]/mL), 10 μL of a compound solution for evaluation (a solution in which a compound was dissolved in DMSO and diluted so that the DMSO concentration became 5%) and 90 μL of a solution prepared by diluting the PDE9 enzyme solution prepared in the above with a buffer E (40 mmol/L Tris-HCl, pH: 7.4, 10 mmol/L MgCl2, 1 mM DTT, 1 mmol/L EGTA) were added under ice cooling. The resultant mixed solution was incubated at 30° C. for 10 min, and thereafter heated for 2 min in boiled water to stop the enzyme reaction of the PDE9. Then, the resultant was returned to room temperature; 50 μL of 5′-Nucleotidase (Biomol GmbH, 10 units/mL) was added thereto; and the resultant was incubated at 30° C. for 10 min to thereby convert [^3H]-5′-GMP formed in the previous reaction to [^3H]-guanosine. 500 μL of an anion exchange resin (Bio-Rad AG1-X2 resin, mesh size: 200-400, H2O:resin=2:1) was added to the resultant reaction liquid, and allowed to stand for 10 min, and thereafter centrifuged (2,000 rpm, 10 min); and a supernatant in which the [^3H]-guanosine was present was transferred to a LumaPlate (PerkinElmer, Inc.), and the radioactivity was measured by a TopCount NXT microplate scintillation and luminescence counter (PerkinElmer, Inc.).
The inhibition percentage of the evaluation compound was calculated using the following expression, taking the radioactivity of a control containing no evaluation compound to be (A), the radioactivity of a blank containing no enzyme to be (B), and the radioactivity of the evaluation compound to be (C). Inhibition percentage=100−{[(C)−(B)]/[(A)−(B)]}×100(%)
The IC50 value for PDE9 of the evaluation compound was determined from inhibition percentage for various concentrations.

The test system of a further experiment is cGMP in the hippocampus. The experiment can be described thus: Effect on rodent hippocampal cGMP. In kind it is in vivo, rat. Particulars: po, read-out: % hippocampal cGMP increase from vehicle control. On the procedure: 4) Effect on Rodent Hippocampal cGMP
The test compound was administered to Sprague-Dawley male rats (Charles River Laboratories Japan, Inc.) or Long-Evans male rats (Institute for Animal Reproduction) and then the animals were sacrificed with microwave under pentobarbital anesthesia, and the hippocampus was extracted. After measuring the wet weight, the hippocampus was frozen with liquid nitrogen and stored at −80° C. In the measurement of cGMP in the hippocampus, a 0.5 M perchloric acid/1 mM EDTA solution was added at 5% (w/v) based on the wet weight, and the mixture was homogenized. After the homogenization, the homogenate was centrifuged (10000 rpm, 15 min), and the supernatant was collected. The collected supernatant was neutralized with a 2 M potassium bicarbonate solution and centrifuged (13000 rpm, 10 min). The cGMP concentration in the supernatant was measured in accordance with the non-acetylation EIA procedure of cGMP EIA kit (GE Healthcare). The result was an increase (C) in the amount of cGMP of the test compound-administered group (B) relative to the amount of cGMP of the vehicle-administered group (A), and was calculated using the following formula. cGMP increase(C)=[(B)−(A)]/(A)×100(%)

Setting [3] is: rat(LE), 30 mg/kg p.o., sampling time 1 hr.

Each structure is given as a SMILES string. Where two headings read alike, the source gives them in different places.

This note sets out measurements from patent publication US8563565B2, “Pyrazoloquinoline derivatives” (Eisai R&D Management Co., Ltd., priority 2011, dated 2013).

T1 sequence (O76083 whole entry): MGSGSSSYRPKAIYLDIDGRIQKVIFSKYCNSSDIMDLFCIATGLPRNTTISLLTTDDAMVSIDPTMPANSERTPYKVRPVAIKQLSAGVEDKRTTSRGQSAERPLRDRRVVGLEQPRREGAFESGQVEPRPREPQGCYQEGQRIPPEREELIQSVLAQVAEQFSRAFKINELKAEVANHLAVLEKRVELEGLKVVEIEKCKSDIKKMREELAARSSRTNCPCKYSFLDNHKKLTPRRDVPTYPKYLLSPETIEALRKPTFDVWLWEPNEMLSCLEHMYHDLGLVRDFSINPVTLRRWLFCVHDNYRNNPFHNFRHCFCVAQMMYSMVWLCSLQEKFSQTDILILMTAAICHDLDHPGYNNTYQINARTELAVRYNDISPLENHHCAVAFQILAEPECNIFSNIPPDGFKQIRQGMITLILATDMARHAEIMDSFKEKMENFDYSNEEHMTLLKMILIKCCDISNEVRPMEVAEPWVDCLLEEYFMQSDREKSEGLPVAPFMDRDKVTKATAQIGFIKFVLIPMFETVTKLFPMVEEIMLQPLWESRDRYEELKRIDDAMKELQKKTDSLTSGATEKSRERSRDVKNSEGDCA

With `COc1nccc(C)c1-c1ccc2c(c1)[nH]c(=O)c1cnn(C3CCOC3)c12` (single isomer, unassigned) [32 (−)], the change in vivo at 10 mg/kg in experiment [1] (rat(SD), 10 mg/kg p.o., sampling time 1 hr) amounted to 72%. Besides, the IC50 in experiment [2] came out at 12.2 nM.

As to `COc1nc(C)cc(C)c1-c1ccc2c(c1)[nH]c(=O)c1cnn(C3CCOC3)c12` (single isomer, unassigned; (-)) [28 (−), (−)-7-(2-methoxy-4,6-dimethylpyridin-3-yl)-1-(tetrahydrofuran-3-yl)-1H-pyrazolo[4,3-c]quinolin-4(5H)-one], the change in vivo at 3 mg/kg in experiment [1] (Rattus norvegicus, 1 h) turned out to be 257%. For the same compound, in experiment [2], the half-inhibitory concentration (IC50) came out at 8.36 nM.

Take `COc1cc(C)c(-c2ccc3c(c2)[nH]c(=O)c2cnn(C4CCOC4)c23)c(C)n1` (single isomer, unassigned; (-)) [29 (−), (−)-7-(6-methoxy-2,4-dimethylpyridin-3-yl)-1-(tetrahydrofuran-3-yl)-1H-pyrazolo[4,3-c]quinolin-4(5H)-one]: the change in vivo at 30 mg/kg in the experiment with cGMP in the hippocampus (Rattus norvegicus, 1 h) turned out to be 34%; in experiment [1] (Rattus norvegicus, 1 h) it was 238%. For the same compound, the IC50 in experiment [2] amounted to 30.7 nM.

For the compound `COc1ncc(C)c(-c2ccc3c(c2)[nH]c(=O)c2cnn([C@H]4CCOC4)c23)c1C` [26 S], the change in vivo at 10 mg/kg in the experiment on cGMP in the hippocampus (Rattus norvegicus, 1 h) stood at 58%; in experiment [1] (Rattus norvegicus, 1 h) it was 274%.

Take `COc1cc(C)c(-c2ccc3c(c2)[nH]c(=O)c2cnn(C4CCOCC4)c23)c(C)n1` [Example 3, 7-(6-methoxy-2,4-dimethylpyridin-3-yl)-1-(tetrahydro-2H-pyran-4-yl)-1H-pyrazolo[4,3-c]quinolin-4(5H)-one]: the change in vivo at 10 mg/kg with cGMP in the hippocampus (Rattus norvegicus, 4 h) is 32%; in experiment [1] (Rattus norvegicus, 2 h), 186%. For the same compound, the IC50 in experiment [2] turned out to be 14 nM.

On to `COc1nc(C)cc(C)c1-c1ccc2c(c1)[nH]c(=O)c1cnn(C3CCOCC3)c12` [Example 4, 7-(2-methoxy-4,6-dimethylpyridin-3-yl)-1-(tetrahydro-2H-pyran-4-yl)-1H-pyrazolo[4,3-c]quinolin-4(5H)-one], for which the change in vivo at 30 mg/kg came out at 25% in the experiment with cGMP in the hippocampus (Rattus norvegicus, 1 h) and 246% in experiment [1] (Rattus norvegicus, 1 h). For the same compound, the IC50 in experiment [2] amounted to 4.37 nM.

For `COc1nccc(C)c1-c1ccc2c(c1)[nH]c(=O)c1cnn(C3CCOCC3)c12` [Example 6, 7-(2-methoxy-4-methylpyridin-3-yl)-1-(tetrahydro-2H-pyran-4-yl)-1H-pyrazolo[4,3-c]quinolin-4(5H)-one], the change in vivo at 10 mg/kg in experiment [1] (Rattus norvegicus, 1 h) came to 120%. Further, the IC50 in experiment [2] was determined as 6.86 nM.

With `COc1ncc(F)c(C)c1-c1ccc2c(c1)[nH]c(=O)c1cnn(C3CCOCC3)c12` [Example 12], the change in vivo at 3 mg/kg in experiment [1] (Rattus norvegicus, 1 h) is 91%. Moreover, in experiment [2], the IC50 was determined as 19.7 nM.

Turning to `COc1ncc(C)c(-c2ccc3c(c2)[nH]c(=O)c2cnn(C4CCOCC4)c23)c1C` [Example 15, 7-(2-methoxy-3,5-dimethylpyridin-4-yl)-1-(tetrahydro-2H-pyran-4-yl)-1H-pyrazolo[4,3-c]quinolin-4(5H)-one], the change in vivo at 30 mg/kg in the experiment on cGMP in the hippocampus (setting [3]) is 33%; in experiment [1] (setting [3]), 203%. In addition, the IC50 in experiment [2] turned out to be 8.87 nM.

As to `Cc1cc(OC(F)F)nc(C)c1-c1ccc2c(c1)[nH]c(=O)c1cnn(C3CCOCC3)c12` [Example 18], the change in vivo at 3 mg/kg in experiment [1] (Rattus norvegicus, 1 h) came out at 123%. The IC50 in experiment [2] was 9.3 nM.

Turning to `COc1cc(C)c(-c2ccc3c(c2)[nH]c(=O)c2cnn(C4CCOCC4)c23)c(CF)n1` [Example 24], the change in vivo at 10 mg/kg in experiment [1] (Rattus norvegicus, 1 h) came to 149%. Besides, the IC50 in experiment [2] was 18.7 nM.

On to `COc1ncc(C)c(-c2ccc3c(c2)[nH]c(=O)c2cnn(C4COCCOC4)c23)c1C` [Example 43, 1-(1,4-dioxepan-6-yl)-7-(2-methoxy-3,5-dimethylpyridin-4-yl)-1H-pyrazolo[4,3-c]quinolin-4(5H)-one], for which the change in vivo at 10 mg/kg in the experiment on cGMP in the hippocampus (Rattus norvegicus, 1 h) is 33%; in experiment [1] (Rattus norvegicus, 1 h), 292%. The IC50 in experiment [2] came to 10.5 nM.

For `Cc1cc(OC(C)C)nc(C)c1-c1ccc2c(c1)[nH]c(=O)c1cnn([C@H]3CCOC3)c12` [Example 51, (S)-7-(6-isopropyloxy-2,4-dimethylpyridin-3-yl)-1-(tetrahydrofuran-3-yl)-1H-pyrazolo[4,3-c]quinolin-4(5H)-one], the change in vivo at 10 mg/kg was found to be 17% with cGMP in the hippocampus (Rattus norvegicus, 1 h) and 189% in experiment [1] (Rattus norvegicus, 1 h). In experiment [2], the IC50 was 4.87 nM.

In the case of `COc1ncc(C)c(-c2cc3[nH]c(=O)c4cnn([C@H]5CCOC5)c4c3cc2F)c1C` [Example 53, (S)-8-fluoro-7-(2-methoxy-3,5-dimethylpyridin-4-yl)-1-(tetrahydrofuran-3-yl)-1H-pyrazolo[4,3-c]quinolin-4(5H)-one], the change in vivo at 10 mg/kg came to 27% in the experiment on cGMP in the hippocampus (Rattus norvegicus, 1 h) and 202% in experiment [1] (Rattus norvegicus, 1 h). Besides, in experiment [2], the IC50 was found to be 10.1 nM.

Regarding `COc1nc(C)cc(C)c1-c1cc2[nH]c(=O)c3cnn([C@H]4CCOC4)c3c2cc1F` [Example 54, (S)-8-fluoro-7-(2-methoxy-4,6-dimethylpyridin-3-yl)-1-(tetrahydrofuran-3-yl)-1H-pyrazolo[4,3-c]quinolin-4(5H)-one], the change in vivo at 10 mg/kg worked out at 23% in the experiment with cGMP in the hippocampus (Rattus norvegicus, 1 h) and 282% in experiment [1] (Rattus norvegicus, 1 h). Moreover, the IC50 in experiment [2] amounted to 8.71 nM.

Consider `CCOc1cc(C)c(-c2ccc3c(c2)[nH]c(=O)c2cnn([C@H]4CCOC4)c23)c(C)n1` [Example 62, (S)-7-(6-ethoxy-2,4-dimethylpyridin-3-yl)-1-(tetrahydrofuran-3-yl)-1H-pyrazolo[4,3-c]quinolin-4(5H)-one], for which, in experiment [1] (Rattus norvegicus, 1 h), the change in vivo at 3 mg/kg came out at 155%. Besides, the IC50 in experiment [2] amounted to 11.1 nM.

For orientation: IC50 means the concentration that inhibits the measured activity by half.
